US9233088B2, “Use of glutamate, glutamate derivatives or metabolites, glutamate analogues or mixtures thereof for the manufacture of a composition for the treatment of osteoporosis” (Protista Biotechnology AB, priority 2001, dated 2016)
Residues, ends and D or L forms follow the SMILES beside them.

Columns and labels:
[1] = system: postmenopausal women; conditions: Gynecol. Endocrinol. 7:201-205 (1993); cited from earlier work
[2] = system: piglets; assay: Architectural and geometric properties of bones from piglets given AKG or Ala-Gln orally; assay type: in vivo, pig; conditions: piglets 35 days, 0.4 g/kg b.w. oral, mean ± SEM
Procedure: (§1) All piglets suckled sow milk before weaning. After weaning at the age of 28 days piglets were fed ad libitum with a standard mixture Premix prestarter (PP) (Food plant-Motycz, Poland) and free access to water was allowed. Piglets were allotted to three experimental trials:
(§2) 2—Second group, receiving 0.4 g/kg/b.w. of L-alanyl-L-glutamine (ala-gln), (2 ml solution/kg b.w.)
(§3) Different parameters are used for defining and measuring the bone quality according to the invention. Used parameters are known to the skilled man in the art and are explained below: • 1) Maximum elastic strength measures the load, in Newtons (N), at […]. • 2) Ultimate strength measures the load, in Newtons (N), at […] of the bone. • 3) Cross-sectional area is the measure of the bone area on the cross section, in mm^2. • 4) Second moment of inertia is the measurement of the efficiency of the cross-sectional geometry to resist bending force, expressed in mm^4. • 5) Mean relative wall thickness is the wall thickness of the bone to its lumen. • 6) Bone mineral density (BMD) expresses the mineral content of the bone expressed in g/cm^2.
(§4) At the age of 35 days, piglets were sacrificed, eviscerated and bones were sampled.
Architectural and geometric properties of bone were estimated based on measurements of horizontal and vertical cross section as well as interior and exterior diameter of the bone.
Mean relative wall thickness (MRWT) expresses the ratio of wall to lumen measures and serves as an indicator in the process of architectural adaptation of bone to physiological stress during the growth of the body. When the lumen increases with unchanged wall thickness the MRWT decreases but bone resistance to strain increases.

[3] = system: ovariectomized rats; assay: Femur bone mineral density in intact, shame operated and ovariectomized osteopenic female rats given AKG in drinking water; assay type: in vivo, Wistar rats; conditions: all three groups (INT, SHO, OVX), 60 days drinking water with AKG, p<0.01 in all groups
Procedure: 60 female Wistar rats at the age of 2 months and with an initial bodyweight of 200 g are used.
The animals are maintained in controlled conditions of 12/12 h dark/light ratio at 22° C.±2 and at 55%±2 humidity with free access to food and water.
The rats are divided into three groups (n=20), where Group 1 is shame operated, Group 2 is ovariectomized and Group 3 is intact, i.e. not operated at all.
On the day of surgery, all rats are anaesthetised with an intramuscular injection of ketamine and xylaline.
20 of the rats are shame-operated (SHO), where the ovaries are exteriorised and replaced intact.
The second group of ovariectomized rats (OVX) are submitted to ovariectomy from a dorsal approach.
Six months after ovariectomy, the animals from group 1 and 2, are divided into two additional sub-groups; one placebo and one experimental group.
After 60 days with placebo and experimental drinking water the rats are anaesthetised in CO2 and femur isolated for further analysis of bone mineral density.

[4] = system: piglets; assay: Three point bending test (Instron 4302) of bones from piglets given AKG or Ala-Gln orally; assay type: in vivo, pig; conditions: for Bone ultimate strength (Wf) femur: piglets 35 days of postnatal life, 0.4 g/kg b.w. oral once a day
Procedure: as §1, §2, §3, §4
Using Instron 4302 apparatus and applying three point bending test as presented in FIG. 1, the following properties of the bones were determined from curves showing the relation between load and deflection:
1) maximum elastic strength, Wy
4) maximum elastic deflection.

[5] = system: turkeys; assay: Ulna bone mineral density (DEXA) after fracture and neurectomy in the turkey; assay type: in vivo; conditions: group A, 0.8 g/kg oral
Source text: Turkeys are kept in common cages, 10 turkeys/cage. The turkeys have free access to water and are fed ad libitum.

[6] = system: piglets; assay: Growth (bodyweight) and bone mineralisation during postnatal life of the pig; assay type: in vivo
Procedure: as §1, §2, §4

[7] = ribs 4-9, piglets 35 days, 0.4 g/kg b.w. oral, mean ± SEM

Row | Molecule | Increase in bone mineral density [1] [%] | Cross-sectional area (A) femur ([2]; femur) | Cross-sectional area (A) humerus [2] | BMD difference between the AKG treated rats and the placebo treated rats [3] | Yielding stress of the 5th rib ([4]; 5th rib, 35-days-old piglets, versus control) | Bone ultimate strength (Wf) femur ([4]; mean ± SEM) [N] | BMD of the ulna bone, difference compared to the saline treated turkeys ([5]; left wing control (intact), p<0.01) [%] | BMD of the ulna bone, AKG effect compared to the saline treated turkeys ([5]; right wing experimental (neurectomized, fracture of the ulnae), p<0.055) | Bodyweight difference, day 14 ([6]; day 14, control group always less than Ala-Gln group) | Bodyweight difference, day 21 ([6]; day 21, control group always less than Ala-Gln group) | Bodyweight difference, day 35 ([6]; day 35, control group always less than Ala-Gln group) | Bodyweight difference, day three ([6]; day three of postnatal life, control group always less than Ala-Gln group) | Second moment of inertia (Ix) femur ([2]; femur) | Cross sectional area (A) (ribs 4-9) ([2]; ribs 4-9) [mm^2] | Second moment of inertia (ribs 4-9) ([2]; ribs 4-9) [mm^4] | Bone maximum elastic strength (Wy) (ribs 4-9) [4, 7] [N] | Moment of ultimate strength ribs (4-9) [4, 7] | Ultimate strength (Wf) (ribs 4-9) [4, 7] [N]
1 | L-glutamine calcium monofluorophospate | 4.25 | – | – | – | – | – | – | – | – | – | – | – | – | – | – | – | – | –
2 | α-keto-glutaric sodium salt [AKG] | – | 64.7 ± 3.82 * mm^2 | 52.7 ± 4.1 * mm^2 | about 10% | significant increase | 1123.0 ± 75.09 | 25 | about 11% | – | – | – | – | – | – | – | – | – | –
3 | C[C@H](N)C(=O)N[C@@H](CCC(N)=O)C(=O)O [Ala-Gln, L-alanyl-L-glutamine] (H-Ala-Gln-OH) | – | 60.1 ± 2.59 * mm^2 | 52.2 ± 2.48 * mm^2 | – | – | 1075.0 ± 28.16 | – | – | about 690 g | about 419 g | about 313 g | about 96 g | 492.8 ± 12.81 ∇ mm^4 | 9.62 ± 0.33 | 10.88 ± 0.55 | 442.9 ± 15.32 | 625.24 ± 1.5 ∇ N | 450.2 ± 22.1
